“Also recorded” adds a separate entry of the source.
Legend:
Format in all cases: cell-based
[1] = test system: CD19+ primary B cells; experiment: BrdU incorporation proliferation assay, primary B cells stimulated with donor plasma; settings: OTG177 up to 1000 μM, 72 hours
Protocol: (§1) 0.5×10^6 primary cells (purified CD19+ primary B cells, Precision for Medicine, MD) or 0.5×10^6 CD3+ primary T cells (Precision for Medicine, MD) from a healthy donor were assayed for their rate of proliferation via the BrdU incorporation method (Roche kit 11647229001), following vendor protocols. In brief, BrdU was added to cell culture for 2 hours-12 hours. The cells were dried with hot air ventilation and fixed with saline and ethanol. The incorporated BrdU was measured with an ELISA assay with an anti BrdU antibody (Roche).
(§2) A representative compound according to the disclosure, OTG177 (FIG. 4), was constructed according to the synthetic scheme shown in FIGS. 2A and 2B using the Bait CD10 substrate succinyl-Ala-Ala-Phe- and an antiproliferative Payload RMP. This compound was tested in this proliferation assay as follows: negative selected lymphocytes (either B or T cells) were incubated with different concentration of OTG177 up to 1000 μM with 10% plasma from either a healthy donor or a flaring Pemphigus Vulgaris donor. All conditions had 30 units/ml of heparin to prevent clotting of the plasma. Cells were incubated for 72 hours at 37° C. 5% CO2 and a BrdU incorporation assay was performed with kit (Roche) as described before.

[2] = test system: CD3+ primary T cells; experiment: BrdU incorporation proliferation assay, primary T cells stimulated with donor plasma; settings: OTG177 up to 1000 μM, 72 hours
Protocol: as §1, §2

[3] = test system: PBMC (granulocytes, monocytes, lymphocytes); experiment: Mixed-cell assay, PBMC composition by flow cytometry (SSC vs CD45); settings: up to 50 μM; healthy, PV or SLE donor plasma; FIG. 5B
Protocol: (§3) 0.5×10^6 primary cells (purified CD19+ primary B cells (Precision for Medicine, MD) or 0.5×10^6 CD3+ primary T cells (Precision for Medicine, MD Primary PBMCs (Precision for Medicine, MD) from a healthy donor were stimulated with 10% v/v plasma from either a healthy donor, a pemphigus vulgaris (PV) donor, or a systemic lupus erythematosus (SLE) donor for 24 hours at 37 C, 5% CO2. Compound OTG177 was added at 1 μM, 10 μM and 50 μM concentrations with DMSO as a mock treatment. After 24 hours-72 hours of treatment, cells were labeled with anti-CD45 antibody (5 μl/million cells in 100 μl volume, clone HI30, BUV395, Biolegend, CA), anti-CD19 antibody (5 μl per million cells in 100 μl volume, Clone HIB, PE-CF594, Biolegend, CA) anti-CD3 antibody (5 μl/million cells in 100 μl volume, clone SK7, FITC, Biolegend, CA). Propidium (1 μg/ml) was used to select cells based on their viability. The cells were analyzed by multi-colored flow cytometry using an Attune NxT Flow Cytometer (ThermoFisher).
Overall peripheral blood mononuclear cell (PBMC) composition was evaluated by gating side scattering (SSC) versus CD45, a pan leukocyte marker (FIG. 5A). This gating strategy can differentiate different leukocyte populations based on their scattering profiles.

[4] = test system: primary CD19+ B lymphocytes; experiment: Mixed-cell assay, B lymphocytes in mixed PBMC population by flow cytometry; settings: FIG. 5E; for suppression of B cell proliferation in mixed PBMC population: 1 μM to 50 μM range
Protocol: as §3
(§4) In addition, the effect of OTG177 on B and T lymphocytes was examined by first gating all PBMCs by forward scattering (FSC) versus side scattering (SSC) and isolating the low SSC and high FSC population (FIG. 5C), gating on this selection, the populations of segregated based on their staining to CD19 (red) and CD3 antibodies (green) (FIG. 5D).

[5] = test system: primary CD3+ T lymphocytes; experiment: Mixed-cell assay, T lymphocytes in mixed PBMC population by flow cytometry; settings: up to 50 μM; healthy, PV and SLE plasma; FIG. 5F
Protocol: as §3, §4

## C[C@H](NC(=O)CCC(=O)O)C(=O)N[C@@H](C)C(=O)N[C@@H](Cc1ccccc1)C(=O)Nc1ccc2c(c1)COP(=O)(OC[C@H]1O[C@@H](n3cnc(C(N)=O)n3)[C@H](O)[C@@H]1O)O2 (stereo partly drawn) [OTG177, 4-[[(1S)-2-[[(1S)-2-[[(1S)-1-benzyl-2-[[2-[[(2R,3S,4R,5R)-5-(3-carbamoyl-1,2,4-triazol-1-yl)-3,4-dihydroxy-tetrahydrofuran-2-yl]methoxy]-2-oxo-4H-1,3,2benzodioxaphosphinin-6-yl]amino]-2-oxo-ethyl]amino]-1-methyl-2-oxo-ethyl]amino]-1-methyl-2-oxo-ethyl]amino]-4-oxo-butanoic Acid]
[1]; 10% flaring pemphigus vulgaris donor's plasma, FIG. 4C
  antiproliferative activity in B cells: strong antiproliferative activity
[1]; 10% healthy donor's plasma, FIG. 4B
  antiproliferative activity in B cells: did not exhibit detectable antiproliferative activity
[2]; 10% flaring pemphigus vulgaris donor's plasma, FIG. 4E
  antiproliferative activity in T cells: did not exhibit antiproliferative activity
[2]; 10% healthy donor's plasma, FIG. 4D
  antiproliferative activity in T cells: did not exhibit antiproliferative activity
[3]
  effect on PBMC composition (% granulocytes, monocytes, lymphocytes): not affected; also recorded: does not have obvious effects
[4]; stimulated with PV plasma
  suppression of B cell proliferation in mixed PBMC population: dose-dependent suppression; also recorded: suppressive effect
[4]; stimulated with SLE plasma
  suppression of B cell proliferation in mixed PBMC population: dose-dependent suppression; also recorded: suppressive effect
[4]; stimulated with healthy plasma, 1, 10, 50 μM
  effect on B cells in mixed PBMC population: not affected
[5]
  effect on T cells in mixed PBMC population: not affected; also recorded: no obvious effect
